Laboratory results reported in patent US20220324835A1 (Nurix Therapeutics, Inc., priority 2018, published 2022).

Experiments:
Format in all cases: cell-based
[1] = system: primary human total T-cells; test: T-cell activation assessed by cell proliferation (Cell Trace Violet)
In short: (§1)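 Primary human T-cells (>95% CD3+, negative selection from PBMC) were pre-incubated with inhibitor (e.g. 10, 1.11, 0.123 μM; DMSO <0.1%) for 1 h at 37 °C. They were then stimulated 48 h with plate-bound OKT3 (coated at 10 μg/mL), alone or with 5 μg/mL soluble anti-CD28. Results are fold change over uninhibited, identically stimulated cells.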

[2] = system: primary human total T-cells; test: T-cell activation assessed by CD69 expression
In short: as §1

[3] = system: primary human total T-cells; test: T-cell activation assessed by cytokine secretion (GM-CSF, IFNγ, TNFα)
In short: as §1

[4] = CD3/CD28 stimulation, CD4 T-cells, read-out: % CP (cell proliferation) (CD4)
[5] = CD3/CD28 stimulation, CD8 T-cells, read-out: % CP (cell proliferation) (CD8)
[6] = CD3 alone stimulation, CD8 T-cells, read-out: % CP (cell proliferation) (CD8)
[7] = CD3/CD28 stimulation, CD4 T-cells, read-out: % CD69+ (CD4)
[8] = CD3/CD28 stimulation, CD8 T-cells, read-out: % CD69+ (CD8)
[9] = CD3 alone stimulation, CD4 T-cells, read-out: % CD69+ (CD4)
[10] = CD3 alone stimulation, CD8 T-cells, read-out: % CD69+ (CD8)
[11] = CD3/CD28 stimulation, read-out: GM-CSF secretion
[12] = CD3/CD28 stimulation, read-out: IFNγ secretion
[13] = CD3/CD28 stimulation, read-out: TNFα secretion
[14] = CD3 alone stimulation, read-out: GM-CSF secretion
[15] = CD3 alone stimulation, read-out: IFNγ secretion
[16] = CD3 alone stimulation, read-out: TNFα secretion

## C[C@H](Cc1nncn1C)c1cccc(NC(=O)c2cc3cc(N4CCNCC4)ccc3cn2)c1 [Compound 472, N-{3-[(2R)-1-(4-methyl-4H-1,2,4-triazol-3-yl)propan-2-yl]phenyl}-6-(piperazin-1-yl)isoquinoline-3-carboxamide]
[1]; [4]
  fold induction at 1.11 µM: 3.01 to 4
  fold induction at 10 µM: > 4
[1]; [5]
  fold induction at 1.11 µM: 2.01 to 3
  fold induction at 10 µM: 2.01 to 3
[1]; [6]
  fold induction at 1.11 µM: 2.01 to 3
  fold induction at 10 µM: < 2
[2]; [7]
  fold induction at 1.11 µM: 1.2 to 1.4
  fold induction at 10 µM: 1.4 to 1.6
[2]; [8]
  fold induction at 1.11 µM: ≤ 1.2
  fold induction at 10 µM: 1.2 to 1.4
[2]; [9]
  fold induction at 1.11 µM: 1.4 to 1.6
  fold induction at 10 µM: 1.4 to 1.6
[2]; [10]
  fold induction at 1.11 µM: ≤ 1.2
  fold induction at 10 µM: 1.2 to 1.4
[3]; [11]
  fold induction at 1.11 µM: 1.51 to 2
  fold induction at 10 µM: 2.01 to 4
[3]; [12]
  fold induction at 1.11 µM: < 2
  fold induction at 10 µM: < 2
[3]; [13]
  fold induction at 1.11 µM: 1.51 to 2
  fold induction at 10 µM: 1.51 to 2
[3]; [14]
  fold induction at 1.11 µM: 1.51 to 2
  fold induction at 10 µM: 1.51 to 2
[3]; [15]
  fold induction at 1.11 µM: < 2
  fold induction at 10 µM: < 2
[3]; [16]
  fold induction at 1.11 µM: ≤ 1.5
  fold induction at 10 µM: ≤ 1.5

## Cn1cnnc1CC1(c2cccc(N3Cc4c(cc(CN5CCC6(CC6)C5)cc4C(F)(F)F)C3=O)c2)COC1 [Compound 520, 6-((5-azaspiro[2.4]heptan-5-yl)methyl)-2-(3-(3-((4-methyl-4H-1,2,4-triazol-3-yl)methyl)oxetan-3-yl)phenyl)-4-(trifluoromethyl)isoindolin-1-one]
[1]; [4]
  fold induction at 1.11 µM: > 4
  fold induction at 10 µM: > 4
[1]; [5]
  fold induction at 1.11 µM: > 4
  fold induction at 10 µM: > 4
[1]; [6]
  fold induction at 1.11 µM: > 4
  fold induction at 10 µM: > 4
[2]; [7]
  fold induction at 1.11 µM: > 1.6
  fold induction at 10 µM: > 1.6
[2]; [8]
  fold induction at 1.11 µM: 1.2 to 1.4
  fold induction at 10 µM: 1.2 to 1.4
[2]; [9]
  fold induction at 1.11 µM: > 1.6
  fold induction at 10 µM: > 1.6
[2]; [10]
  fold induction at 1.11 µM: 1.4 to 1.6
  fold induction at 10 µM: 1.4 to 1.6
[3]; [11]
  fold induction at 1.11 µM: > 4
  fold induction at 10 µM: > 4
[3]; [12]
  fold induction at 1.11 µM: > 4
  fold induction at 10 µM: > 4
[3]; [13]
  fold induction at 1.11 µM: 2.01 to 4
  fold induction at 10 µM: > 4
[3]; [14]
  fold induction at 1.11 µM: 2.01 to 4
  fold induction at 10 µM: > 4
[3]; [15]
  fold induction at 1.11 µM: > 4
  fold induction at 10 µM: > 4
[3]; [16]
  fold induction at 1.11 µM: 2.01 to 4
  fold induction at 10 µM: 2.01 to 4
